Source: ChEMBL document CHEMBL3046870, “Inhibition of chloroplast electron transport reactions by trifluralin and diallate” (Plant Physiol, 1977)
Active and inactive are the calls of the source. No cut-off for these calls is given here.

Key:
[1] = molecular target: Photosystem II protein D1 (Spinacia oleracea) (UniProt P69560); assay: Inhibition of Spinacia oleracea (spinach) photosystem II assessed as light-induced re-reduction of Cyt-f at 200 uM added prior to illumination by dual wavelength spectrophotometer analysis
[2] = molecular target: T1, Photosystem I iron-sulfur center (Spinacia oleracea) (UniProt P10098); assay: Inhibition of Spinacia oleracea (spinach) photosystem I assessed as light-induced oxidation of Cyt-f at 200 uM added prior to illumination by dual wavelength spectrophotometer analysis
T1 sequence (whole entry): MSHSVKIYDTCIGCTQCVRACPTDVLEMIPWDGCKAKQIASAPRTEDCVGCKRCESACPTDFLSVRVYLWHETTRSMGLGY

[3] = molecular target: Photosystem II protein D1 (Spinacia oleracea) (UniProt P69560); assay: Inhibition of Spinacia oleracea (spinach) photosystem II assessed as electron flow from H20 to PDOX at 300 uM after 1 hr by polarographically
[4] = molecular target: T1, Photosystem I iron-sulfur center (Spinacia oleracea); assay: Inhibition of Spinacia oleracea (spinach) photosystem I assessed as electron flow from ascorbate/DAD to methylviologen at >200 uM after 1 hr by polarographically
[5] = tested on: Spinacia oleracea; assay: Inhibition of Spinacia oleracea (spinach) chloroplast electron transport chain assessed as residual activity of noncyclic electron flow using methylviologen as acceptor up to 300 uM by polarographically relative to control
[6] = Inhibition of Spinacia oleracea (spinach) chloroplast electron transport chain-mediated noncyclic electron flow using methylviologen as acceptor by polarographically
[7] = Inhibition of Spinacia oleracea (spinach) chloroplast electron transport chain assessed as electron flow from water to ferricyanide by polarographically
[8] = tested on: Spinacia oleracea; assay: Inhibition of Spinacia oleracea (spinach) chloroplast electron transport chain assessed as residual electron flow from water to ferricyanide up to 300 uM by polarographically relative to control
[9] = tested on: Spinacia oleracea; assay: Inhibition of Spinacia oleracea (spinach) chloroplast electron transport chain-mediated rate of oxygen evolution per mg of chloroplast at 62.5 uM preincubated with DTT in dark condition for 5 min presence of 0.31 mM DTT
[10] = tested on: Spinacia oleracea; assay: Inhibition of Spinacia oleracea (spinach) chloroplast electron transport chain-mediated rate of oxygen evolution per mg of chloroplast at 62.5 uM
[11] = tested on: Spinacia oleracea; assay: Inhibition of Spinacia oleracea (spinach) chloroplast electron transport chain-mediated rate of oxygen evolution per mg of chloroplast at 62.5 uM in presence of 0.31 mM DTT
[12] = tested on: Spinacia oleracea; assay: Inhibition of Spinacia oleracea (spinach) chloroplast electron transport chain-mediated sulfhydryl-induced ATP-Pi exchange assessed as inorganic phosphate release at 200 uM treated during activation stage
[13] = tested on: Spinacia oleracea; assay: Inhibition of Spinacia oleracea (spinach) chloroplast electron transport chain-mediated sulfhydryl-induced ATP-Pi exchange assessed as inorganic phosphate release at 200 uM treated during incubation stage
[14] = Inhibition of Spinacia oleracea (spinach) chloroplast electron transport chain-mediated Mg2+-ATPase activity assessed as inorganic phosphate release
[15] = tested on: Spinacia oleracea; assay: Inhibition of Spinacia oleracea (spinach) chloroplast electron transport chain-mediated light-induced ATP-Pi exchange assessed as inorganic phosphate release at 200 uM treated during incubation stage
[16] = tested on: Spinacia oleracea; assay: Inhibition of Spinacia oleracea (spinach) chloroplast electron transport chain-mediated light-induced ATP-Pi exchange assessed as inorganic phosphate release at 200 uM treated during activation stage
[17] = tested on: Spinacia oleracea; assay: Inhibition of Spinacia oleracea (spinach) chloroplast electron transport chain-mediated sulfhydryl-induced ATP-Pi exchange assessed as inorganic phosphate release at 200 uM
[18] = tested on: Spinacia oleracea; assay: Inhibition of Spinacia oleracea (spinach) chloroplast electron transport chain-mediated light-induced ATP-Pi exchange assessed as inorganic phosphate release at 200 uM
[19] = Inhibition of Spinacia oleracea (spinach) chloroplast electron transport chain-mediated sulfhydryl-induced ATP-Pi exchange assessed as inorganic phosphate release
[20] = Inhibition of Spinacia oleracea (spinach) chloroplast electron transport chain-mediated light-induced ATP-Pi exchange assessed as inorganic phosphate release
[21] = tested on: Spinacia oleracea; assay: Inhibition of Spinacia oleracea (spinach) chloroplast electron transport chain-mediated DAD-induced cyclic phosphorylation up to 200 uM by polarographically in presence of ascorbate in red light
[22] = tested on: Spinacia oleracea; assay: Inhibition of Spinacia oleracea (spinach) chloroplast electron transport chain-mediated DAD-induced cyclic phosphorylation up to 200 uM by polarographically in absence of DCMU in red light
[23] = tested on: Spinacia oleracea; assay: Inhibition of Spinacia oleracea (spinach) chloroplast electron transport chain-mediated DAD-induced cyclic phosphorylation up to 200 uM by polarographically in absence of DCMU in white light
[24] = tested on: Spinacia oleracea; assay: Inhibition of Spinacia oleracea (spinach) chloroplast electron transport chain-mediated DAD-induced cyclic phosphorylation at 200 uM by polarographically
[25] = tested on: Spinacia oleracea; assay: Inhibition of Spinacia oleracea (spinach) chloroplast electron transport chain-mediated DAD-induced cyclic phosphorylation at 100 uM by polarographically
[26] = tested on: Spinacia oleracea; assay: Inhibition of Spinacia oleracea (spinach) chloroplast electron transport chain-mediated DAD-induced cyclic phosphorylation at 50 uM by polarographically
[27] = tested on: Spinacia oleracea; assay: Inhibition of Spinacia oleracea (spinach) chloroplast electron transport chain-mediated DAD-induced cyclic phosphorylation at 25 uM by polarographically
[28] = tested on: Spinacia oleracea; assay: Inhibition of Spinacia oleracea (spinach) chloroplast electron transport chain-mediated DAD-induced cyclic phosphorylation at 10 uM by polarographically
[29] = tested on: Spinacia oleracea; assay: Inhibition of Spinacia oleracea (spinach) chloroplast electron transport chain-mediated PMS-induced cyclic phosphorylation at 200 uM […]
[30] = tested on: Spinacia oleracea; assay: Inhibition of Spinacia oleracea (spinach) chloroplast electron transport chain-mediated PMS-induced cyclic phosphorylation at 100 uM by polarographically
[31] = tested on: Spinacia oleracea; assay: Inhibition of Spinacia oleracea (spinach) chloroplast electron transport chain-mediated PMS-induced cyclic phosphorylation at 50 uM […]
[32] = tested on: Spinacia oleracea; assay: Inhibition of Spinacia oleracea (spinach) chloroplast electron transport chain-mediated PMS-induced cyclic phosphorylation at 25 uM […]
[33] = tested on: Spinacia oleracea; assay: Inhibition of Spinacia oleracea (spinach) chloroplast electron transport chain-mediated PMS-induced cyclic phosphorylation at 10 uM by polarographically
[34] = molecular target: Photosystem II protein D1 (Spinacia oleracea) (UniProt P69560); assay: Inhibition of Spinacia oleracea (spinach) photosystem II mediated noncyclic photophosphorylation assessed as 32P-orthophosphate incorporation into ATP up to 300 uM by polarographically
[35] = molecular target: T1, Photosystem I iron-sulfur center (Spinacia oleracea); assay: Inhibition of Spinacia oleracea (spinach) photosystem I mediated noncyclic photophosphorylation assessed as 32P-orthophosphate incorporation into ATP up to 300 uM […]
[36] = Inhibition of Spinacia oleracea (spinach) chloroplast electron transport chain-mediated noncyclic photophosphorylation assessed as 32P-orthophosphate incorporation into ATP […]
[37] = molecular target: Photosystem II protein D1 (Spinacia oleracea) (UniProt P69560); assay: Inhibition of Spinacia oleracea (spinach) photosystem II assessed as light-induced re-reduction of Cyt-f at 100 uM added prior to illumination by dual wavelength spectrophotometer analysis
[38] = molecular target: T1, Photosystem I iron-sulfur center (Spinacia oleracea); assay: Inhibition of Spinacia oleracea (spinach) photosystem I assessed as light-induced oxidation of Cyt-f at 100 uM added prior to illumination by dual wavelength spectrophotometer analysis
[39] = molecular target: T2, Photosystem II protein D1 (Spinacia oleracea, UniProt P69560); assay: Inhibition of Spinacia oleracea (spinach) photosystem II assessed as electron flow from H20 to PDOX after 1 hr by polarographically
[40] = tested on: Spinacia oleracea; assay: Inhibition of Spinacia oleracea (spinach) chloroplast electron transport chain-mediated rate of oxygen evolution per mg of chloroplast at 125 uM preincubated with DTT in dark condition for 5 min presence of 0.31 mM DTT
[41] = tested on: Spinacia oleracea; assay: Inhibition of Spinacia oleracea (spinach) chloroplast electron transport chain-mediated rate of oxygen evolution per mg of chloroplast at 125 uM
[42] = tested on: Spinacia oleracea; assay: Inhibition of Spinacia oleracea (spinach) chloroplast electron transport chain-mediated rate of oxygen evolution per mg of chloroplast at 125 uM in presence of 0.31 mM DTT
[43] = Inhibition of Spinacia oleracea (spinach) chloroplast electron transport chain-mediated PMS-induced cyclic phosphorylation […]
[44] = molecular target: T2, Photosystem II protein D1; assay: Inhibition of Spinacia oleracea (spinach) photosystem II mediated noncyclic photophosphorylation assessed as 32P-orthophosphate incorporation into ATP […]

SMILES | inhibition [4] | IC50 [7] [µM] | Activity [10] [µmol/h] | Activity [11] [µmol/h] | inhibition [12] | inhibition [13] | IC50 [14] [µM] | inhibition [15] | inhibition [16] | inhibition [17] | inhibition [18] | IC50 [19] [µM] | IC50 [20] [µM] | inhibition [24] [%] | inhibition [25] [%] | inhibition [26] [%] | inhibition [27] [%] | inhibition [28] [%] | inhibition [29] [%] | inhibition [30] [%] | further results
CCCN(CCC)c1c([N+](=O)[O-])cc(C(F)(F)F)cc1[N+](=O)[O-] [TRIFLURALIN] | inactive | 10 | 62 | 64 | Active | Active | 90 | Active | Active | Active | Active | 20 | 20 | 6 | 17 | 28 | 24 | 6 | 20 | 16 | inhibition [1]: Active; inhibition [2]: inactive; Imax [3]: 50%; Activity [5]: 10%; IC50 [6]: 10 µM; Activity [8]: 10%; Activity [9]: 60 µmol/h; inhibition [21]: Active; inhibition [22]: Active; inhibition [23]: Active; inhibition [31]: 18%; inhibition [32]: 16%; inhibition [33]: 4%; inhibition [34]: inactive; inhibition [35]: inactive; IC50 [36]: 50 µM
CC(C)N(C(=O)SC/C(Cl)=C/Cl)C(C)C [Diallate] | inactive | 20 | 105 | 97 | Active | Active | 65 | Active | Active | Active | Active | 20 | 20 | 32 | 20 | 48 | 32 | 8 | 66 | 52 | inhibition [37]: Active; inhibition [38]: inactive; IC50 [39]: 75 µM; inhibition [3]: Active; Activity [40]: 30 µmol/h; Activity [41]: 40 µmol/h; Activity [42]: 30 µmol/h; inhibition [31]: 54%; inhibition [32]: 25%; inhibition [33]: 8%; IC50 [43]: 50 µM; IC50 [44]: 100 µM; IC50 [36]: 25 µM
